The subject of data set [1] is human peripheral blood mononuclear cells (PBMC). The data set can be described thus: PBMC cytotoxicity assay (CellTiter-Glo). The data set is classed as cell-based. Particulars: 2 days, pCC50. The method in brief: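 % cytotoxicity was taken from CellTiter-Glo luminescence, using wells without cells and stimulated DMSO wells as references, and fitted by four-parameter curve to give XC50. Cells were human PBMC at 50,000 per well, activated with 100 ng/ml IFN-γ plus 50 ng/ml LPS. Incubation with 11-point, 3-fold dilution series ran for 2 days at 37 °C.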
(In general: ATP-based viability assays read luminescence as a measure of living cells.)

Data set [2] addresses indoleamine 2, 3-dioxygenase (IDO1) (Homo sapiens, UniProt P14902). The data set is described as follows: IDO1 PBMC RapidFire MS assay (kynurenine detection by mass spectrometry). It is filed as cell-based. More on the design: to induce the expression of indoleamine 2, 3-dioxygenase (IDO1); host or cells: human PBMC stimulated with IFN-gamma and LPS. Particulars: human PBMC stimulated with IFN-γ and LPS, 2 days, pIC50, read-out: PBMC PXC50 (converted). The method in brief:
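Kynurenine output, read by RapidFire mass spectrometry as ratio to an internal standard, was measured after 2-day compound exposure (11-point, 3-fold dilutions) of human PBMCs induced with 100 ng/ml IFN-γ and 50 ng/ml LPS. Cell viability tracked alongside via ATP luminescence; XC50 from curve fitting.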

Chain of indoleamine 2, 3-dioxygenase (IDO1) (P14902 whole entry): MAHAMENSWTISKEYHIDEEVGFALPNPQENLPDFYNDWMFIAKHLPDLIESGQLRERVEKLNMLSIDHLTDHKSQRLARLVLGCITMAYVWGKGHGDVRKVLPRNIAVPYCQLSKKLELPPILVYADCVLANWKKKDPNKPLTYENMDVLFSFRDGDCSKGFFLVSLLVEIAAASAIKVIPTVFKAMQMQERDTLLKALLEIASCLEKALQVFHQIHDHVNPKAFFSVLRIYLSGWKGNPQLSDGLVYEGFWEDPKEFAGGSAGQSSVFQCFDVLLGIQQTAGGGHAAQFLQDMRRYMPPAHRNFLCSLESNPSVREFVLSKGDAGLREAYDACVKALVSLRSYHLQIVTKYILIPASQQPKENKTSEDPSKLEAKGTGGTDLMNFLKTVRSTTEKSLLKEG

Consider `CO[C@H]1CC[C@H](N(CC(C)C)c2ccc([C@H](C)CC(=O)O)cc2Nc2nc(C(F)(F)F)ns2)CC1` [Example 50, (R)-3-(4-(isobutyl((1r,4R)-4-methoxycyclohexyl)amino)-3-((3-(trifluoromethyl)-1,2,4-thiadiazol-5-yl)amino)phenyl)butanoic Acid], for which the “PBMC TOX PXC50” value in data set [1] is reported as below 5. Further, the IC50 in data set [2] is 0.00158 µM.

For `CC(C)CN(CC(C)C)c1ccc(C(C)CC(=O)O)cc1Nc1nnn(C)n1` (stereo not shown) [example 251, 3-{4-[bis(2-methylpropyl)amino]-3-[(2-methyl-2H-1,2,3,4-tetrazol-5-yl)amino]phenyl}butanoic acid], in data set [1], the “PBMC TOX PXC50” value was below 5. Further, the IC50 in data set [2] was 2 µM.

For `CO[C@H]1CC[C@H](N(CC(C)C)c2ccc([C@H](C)CC(=O)O)cc2Nc2n[nH]c(C#N)n2)CC1` (racemic) [example 222, (3RS)-3-{3-[(5-cyano-1H-1,2,4-triazol-3-yl)amino]-4-[(2-methylpropyl)[(1rs&,4rs&)-4-methoxycyclohexyl]ami-no]phenyl}butanoic acid], the “PBMC TOX PXC50” value in data set [1] was below 5. The IC50 in data set [2] is 0.2 µM.

As to `CC[C@H](CC(=O)O)c1ccc(N(CC(C)C)C2CCOCC2)c(Nc2n[nH]c(C3CC3)n2)c1` [Example 41, (R)-3-(3-((5-cyclopropyl-1H-1,2,4-triazol-3-yl)amino)-4-(isobutyl(tetrahydro-2H-pyran-4-yl)amino)phenyl)pentanoic Acid], the “PBMC TOX PXC50” value in data set [1] is reported as below 5. In data set [2], the IC50 was 0.00794 µM.

On to `CC(C)CN(CC(C)C)c1ccc([C@H](C)CC(=O)O)cc1Nc1ccc(=O)[nH]c1` [example 217, (3R)-3-{4-[bis(2-methylpropyl)amino]-3-[(6-oxo-1,6-dihydropyridin-3-yl)amino]phenyl}butanoic acid], for which the “PBMC TOX PXC50” value in data set [1] is given as below 5. Besides, in data set [2], the IC50 was 3.98 µM.

Turning to `CC(C)CN(c1ccc([C@H](C)CC(=O)O)cc1Nc1nc(C#N)c[nH]1)C1CCOCC1` [example 228, (3R)-3-{3-[(4 cyano-1H-imidazol-2-yl)amino]-4-[(2-methylpropyl)(oxan-4-yl)amino]phenyl}butanoic acid], the “PBMC TOX PXC50” value in data set [1] was below 5. For the same compound, in data set [2], the IC50 is 0.0158 µM.

Turning to `COCc1ccc(Nc2cc([C@H](C)CC(=O)O)ccc2N(CC(C)C)[C@H]2CC[C@@H](OC)CC2)nc1` [Example 60, (R)-3-(4-(isobutyl((1s,4S)-4-methoxycyclohexyl)amino)-3-((5-(methoxymethyl)pyridin-2-yl)amino)phenyl)butanoic Acid], the “PBMC TOX PXC50” value in data set [1] is on record as below 5. Besides, the IC50 in data set [2] was 0.01 µM.

As to `CC(C)CN(c1ccc([C@H](C)CC(=O)O)cc1Nc1n[nH]c(C(N)=O)n1)[C@H]1CC[C@H](O)CC1` (racemic) [example 225, (3RS)-3-{3-[(5-carbamoyl-1H-1,2,4-triazol-3-yl)amino]-4-[(2-methylpropyl)[(1rs&,4rs&)-4-hydroxycyclohexyl]amino]phenyl}butanoic acid], the “PBMC TOX PXC50” value in data set [1] is below 5. The IC50 in data set [2] was 7.94 µM.

On to `CC(C)CN(c1ccc([C@H](C)CC(=O)O)cc1Nc1ccc(C#N)nn1)C1CCOCC1` [Example 24, (R)-3-(3-((6-cyanopyridazin-3-yl)amino)-4-(isobutyl(tetrahydro-2H-pyran-4-yl)amino)phenyl)butanoic Acid], for which the “PBMC TOX PXC50” value in data set [1] is below 5. Further, the IC50 in data set [2] is 0.00251 µM.

Consider `CC(C)CN(c1ccc([C@H](C)CC(=O)O)cc1Nc1ncc(C(F)(F)F)cn1)C1CCOCC1` [example 241, (3R)-3-{4-[(2-methylpropyl)(oxan-4-yl)amino]-3-{[5-(trifluoromethyl)pyrimi-din-2-yl]amino}phenyl}butanoic acid], for which the “PBMC TOX PXC50” value in data set [1] was below 5. Also, the IC50 in data set [2] was 0.0794 µM.

Consider `CC(C)CN(c1ccc([C@H](C)CC(=O)O)cc1Nc1ccc(C(N)=O)nn1)C1CCOCC1` [example 253, (3R)-3-{3-[(6-carbamoylpyridazin-3-yl)amino]-4-[(2-methylpropyl)(oxan-4-yl)amino]phenyl}butanoic acid], for which the “PBMC TOX PXC50” value in data set [1] is below 5. Moreover, the IC50 in data set [2] was 0.316 µM.

As to `CO[C@H](C)CN(C[C@@H](C)OC)c1ccc([C@H](C)CC(=O)O)cc1Nc1nc(C(F)(F)F)ns1` [example 258, (3R)-3-(4-{bis[(2R)-2-methoxypropyl]amino}-3-{[3-(trifluoromethyl)-1,2,4-thiadiazol-5-yl]amino}phenyl)butanoic acid], the “PBMC TOX PXC50” value in data set [1] is reported as below 5. Moreover, the IC50 in data set [2] was 0.0794 µM.

In the case of `CC(C)CN(c1ccc([C@H](C)CC(=O)O)cc1Nc1ncc(Cl)cn1)C1CCOCC1` [example 231, (3R)-3-{3-[(5-chloropyrimidin-2-yl)amino]-4-[(2-methylpropyl)(oxan-4-yl)amino]phenyl}butanoic acid], the “PBMC TOX PXC50” value in data set [1] was below 5. In data set [2], the IC50 was 0.0251 µM.

Regarding `CC(C)CN(c1ccc([C@H](C)CC(=O)O)cc1Nc1nc(C(F)(F)F)c[nH]1)C1CCOCC1` [Example 114, (R)-3-(4-(isobutyl(tetrahydro-2H-pyran-4-yl)amino)-3-((4-(trifluoromethyl)-1H-imidazol-2-yl)amino)phenyl)butanoic Acid], in data set [1], the “PBMC TOX PXC50” value is on record as below 5. Also, the IC50 in data set [2] was 0.0158 µM.

On to `CO[C@H]1CC[C@H](N(CC(C)C)c2ccc([C@H](C)CC(=O)O)cc2Nc2nc(Cl)ns2)CC1` [Example 54, (R)-3-(3-((3-chloro-1,2,4-thiadiazol-5-yl)amino)-4-(isobutyl((1r,4R)-4-methoxycyclohexyl)amino)phenyl)butanoic Acid], for which, in data set [1], the “PBMC TOX PXC50” value is listed as below 5. Further, the IC50 in data set [2] is 0.002 µM.

On to `CC(C)CN(c1ccc(-c2ccccc2C(=O)O)cc1Nc1nc(C#N)ns1)C1CCCCC1` [Example 89, 3′-((3-cyano-1,2,4-thiadiazol-5-yl)amino)-4′-(cyclohexyl(isobutyl)amino)-[1,1′-biphenyl]-2-carboxylic Acid], for which the “PBMC TOX PXC50” value in data set [1] was below 5. Further, the IC50 in data set [2] is 0.00398 µM.

For the compound `COC(=O)c1c[nH]c(Nc2cc([C@H](C)CC(=O)O)ccc2N(CC(C)C)[C@H]2CC[C@@H](OC)CC2)n1` [Example 46, (R)-3-(4-(isobutyl((1s,4s)-4-methoxycyclohexyl)amino)-3-((4-(methoxycarbonyl)-1H-imidazol-2-yl)amino)phenyl)butanoic Acid], the “PBMC TOX PXC50” value in data set [1] was 5.2. Besides, in data set [2], the IC50 was 0.00158 µM.

Turning to `CC(C)CN(CC(C)C)c1ccc(C(C)(C)CC(=O)O)cc1Nc1nc(C(F)(F)F)ns1` [Example 3, 3-(4-(diisobutylamino)-3-((3-(trifluoromethyl)-1,2,4-thiadiazol-5-yl)amino)phenyl)-3-methylbutanoic Acid], the “PBMC TOX PXC50” value in data set [1] is recorded as below 5. In addition, the IC50 in data set [2] was 0.00158 µM.

For `CC(C)CN(c1ccc([C@H](C)CC(=O)O)cc1Nc1nc(Cl)ns1)C1CCOCC1` [Example 25, (R)-3-(3-((3-chloro-1,2,4-thiadiazol-5-yl)amino)-4-(isobutyl(tetrahydro-2H-pyran-4-yl)amino)phenyl)butanoic Acid], in data set [1], the “PBMC TOX PXC50” value is given as below 5. Besides, the IC50 in data set [2] is 0.00316 µM.

For `CC(C)CN(c1ccc([C@H](C)CC(=O)O)cc1Nc1n[nH]c(C(F)(F)F)n1)[C@H]1CC[C@@H](Br)CC1` [Example 93, (R)-3-(4-(((cis)-4-bromocyclohexyl) (isobutyl)amino)-3-((5-(trifluoromethyl)-1H-1,2,4-triazol-3-yl)amino)phenyl)butanoic Acid], the “PBMC TOX PXC50” value in data set [1] was below 5. Moreover, the IC50 in data set [2] was 0.00126 µM.

Values taken from patent US10899754B2, “Modulators of indoleamine 2,3-dioxygenase” (GLAXOSMITHKLINE INTELLECTUAL PROPERTY DEVELOPMENT LIMITED, priority 2016, dated 2021).
